According to ChEMBL document CHEMBL1130967, “Modulation of apoptosis in human lymphocytes by adenosine analogues” (1998):

What was measured:
Type in all cases: functional
[1] = Percentage of apoptotic cells in human peripheral blood mononuclear cells after 72 hour incubation at the concentration 30 uM; settings: at 30 µM
[2] = Percentage of apoptotic cells in human peripheral blood mononuclear cells after 72 hour incubation at the concentration 10 uM; settings: at 10 µM
[3] = Percentage of apoptotic cells in human peripheral blood mononuclear cells after 72 hour incubation at the concentration 60 uM; settings: at 60 µM
[4] = Percentage of apoptotic cells in human peripheral blood mononuclear cells after 72 hour incubation at the concentration 1 uM; settings: at 1 µM

Compound | Apoptotic cells [1] [%] | Apoptotic cells [2] [%] | Apoptotic cells [3] [%] | Apoptotic cells [4] [%]
OC[C@H]1O[C@@H](n2cnc3c(NC4CCCCCC4)nc(Cl)nc32)C[C@@H]1O | 12.3 | 7.9 | 16.3 | 8.2
Nc1nc(Cl)nc2c1ncn2[C@H]1C[C@H](O)[C@@H](CO)O1 [CLADRIBINE] | 93.8 | 91.2 | 94.7 | 91
OC[C@H]1O[C@@H](n2cnc3c(NC4CCCC4)cc(Cl)nc32)C[C@@H]1O | 12 | 9.7 | 13.9 | 8.6
Nc1nc(Cl)nc2c1ncn2C1OC(CO)CC1O (stereo not given) | 11.4 | 13 | 10.4 | 7.7
OC[C@H]1O[C@@H](n2cnc3c(NC4CCCCCC4)ccnc32)C[C@@H]1O | 8.9 | 8.1 | 9.6 | 7.7
Nc1nc(I)nc2c1ncn2[C@@H]1O[C@H](CO)[C@@H](O)[C@H]1O | 12 | 12.1 | 12.2 | 9.1
OC[C@H]1O[C@@H](n2cnc3c(NC4CCCC4)ccnc32)C[C@@H]1O | 9.5 | 9.8 | 9.9 | 9.8
OC[C@H]1O[C@@H](n2cnc3c(NC4CCCC4)nc(Cl)nc32)[C@H](O)[C@@H]1O | 9.6 | 10.4 | 11 | 5.4
CNC(=O)C1OC(n2cnc3c(N)nc(Cl)nc32)CC1O (stereo not given) | 10.4 | 8.1 | 10.7 | 4.5
Nc1cc(Cl)nc2c1ncn2[C@H]1C[C@H](O)[C@@H](CO)O1 | 9.8 | 8.7 | 10.6 | 5
OC[C@H]1O[C@@H](n2cnc3c(NC4CC4)ncnc32)C[C@@H]1O | 9.5 | 9.5 | 10.6 | 7.1
OC[C@H]1O[C@@H](n2cnc3c(NC4CCCCCC4)cc(Cl)nc32)C[C@@H]1O | 9.6 | 7.9 | 10.5 | 7.4
Nc1nc(Cl)nc2c1ncn2[C@@H]1O[C@H](CO)[C@@H](O)[C@H]1O | 82.7 | 41.8 | 91.9 | 8.8
Nc1nccc2c1ncn2[C@@H]1O[C@H](CO)[C@@H](O)[C@H]1O | 11.9 | 6.5 | 10.7 | 9.9
Nc1nc(Cl)nc2c1ncn2C1CCC(CO)O1 (stereo not given) | 9.6 | 8.5 | 11.4 | 4.7
Nc1cc(Cl)nc2c1ncn2[C@@H]1O[C@H](CO)[C@@H](O)[C@H]1O | 11.1 | 10.4 | 12.1 | 10.2
Nc1nc(Cl)cc2c1ncn2C1O[C@H](CO)[C@@H](O)[C@H]1O (stereo not given in full) | 9.6 | 9 | 10.3 | 9.6
OC[C@H]1O[C@@H](n2cnc3c(NC4CCCCCC4)ncnc32)C[C@@H]1O | 9.8 | 9.4 | 11.1 | 8
OC[C@H]1O[C@@H](n2cnc3c(NC4CCCC4)nc(Cl)cc32)C[C@@H]1O | 14.9 | 13.5 | 15.2 | 13.1
OC[C@H]1O[C@@H](n2cnc3c(NC4CC4)cc(Cl)nc32)C[C@@H]1O | 10.8 | 10.4 | 11.4 | 7.3
Nc1nc(Cl)cc2c1ncn2[C@H]1C[C@H](O)[C@@H](CO)O1 | 34.5 | 20.2 | 59.2 | 16.6
OC[C@H]1O[C@@H](n2cnc3c(NC4CCCC4)ncnc32)C[C@@H]1O | 7.1 | 7.9 | 8.7 | 6.7
OC[C@H]1O[C@@H](n2cnc3c(NC4CCCC4)nc(Cl)nc32)C[C@@H]1O | 18.8 | 10 | 38.8 | 4.7
OC[C@H]1O[C@@H](n2cnc3c(NC4CC4)nc(Cl)nc32)C[C@@H]1O | 17.9 | 7.7 | 24.7 | 7.8
Nc1ccnc2c1ncn2[C@@H]1O[C@H](CO)[C@@H](O)[C@H]1O | 12.8 | 16.6 | 10.7 | 8
